Laboratory results: ChEMBL document CHEMBL4043180, “Biological evaluation of 2-pyrazolinyl-1-carbothioamide derivatives against HCT116 human colorectal cancer cell lines and elucidation on QSAR and molecular binding modes” (Bioorg Med Chem, 2017)
Active and inactive are the calls of the source. No cut-off for these calls is given here.

Legend:
[1] = biological target: Tyrosine-protein kinase ABL1 (Homo sapiens) (UniProt P00519); experiment: Inhibition of Abl1 (unknown origin) at 10 uM
[2] = biological target: Bcr/Abl fusion protein (Homo sapiens) (UniProt P00519+P11274); experiment: Inhibition of BCR/ABL Tyr245 phosphorylation in human K562 cells at 20 uM incubated for 6 to 24 hrs; type: cell-based
Chain of Bcr/Abl fusion protein (Homo sapiens) (P00519 whole entry, looked up, the tested form may be a part): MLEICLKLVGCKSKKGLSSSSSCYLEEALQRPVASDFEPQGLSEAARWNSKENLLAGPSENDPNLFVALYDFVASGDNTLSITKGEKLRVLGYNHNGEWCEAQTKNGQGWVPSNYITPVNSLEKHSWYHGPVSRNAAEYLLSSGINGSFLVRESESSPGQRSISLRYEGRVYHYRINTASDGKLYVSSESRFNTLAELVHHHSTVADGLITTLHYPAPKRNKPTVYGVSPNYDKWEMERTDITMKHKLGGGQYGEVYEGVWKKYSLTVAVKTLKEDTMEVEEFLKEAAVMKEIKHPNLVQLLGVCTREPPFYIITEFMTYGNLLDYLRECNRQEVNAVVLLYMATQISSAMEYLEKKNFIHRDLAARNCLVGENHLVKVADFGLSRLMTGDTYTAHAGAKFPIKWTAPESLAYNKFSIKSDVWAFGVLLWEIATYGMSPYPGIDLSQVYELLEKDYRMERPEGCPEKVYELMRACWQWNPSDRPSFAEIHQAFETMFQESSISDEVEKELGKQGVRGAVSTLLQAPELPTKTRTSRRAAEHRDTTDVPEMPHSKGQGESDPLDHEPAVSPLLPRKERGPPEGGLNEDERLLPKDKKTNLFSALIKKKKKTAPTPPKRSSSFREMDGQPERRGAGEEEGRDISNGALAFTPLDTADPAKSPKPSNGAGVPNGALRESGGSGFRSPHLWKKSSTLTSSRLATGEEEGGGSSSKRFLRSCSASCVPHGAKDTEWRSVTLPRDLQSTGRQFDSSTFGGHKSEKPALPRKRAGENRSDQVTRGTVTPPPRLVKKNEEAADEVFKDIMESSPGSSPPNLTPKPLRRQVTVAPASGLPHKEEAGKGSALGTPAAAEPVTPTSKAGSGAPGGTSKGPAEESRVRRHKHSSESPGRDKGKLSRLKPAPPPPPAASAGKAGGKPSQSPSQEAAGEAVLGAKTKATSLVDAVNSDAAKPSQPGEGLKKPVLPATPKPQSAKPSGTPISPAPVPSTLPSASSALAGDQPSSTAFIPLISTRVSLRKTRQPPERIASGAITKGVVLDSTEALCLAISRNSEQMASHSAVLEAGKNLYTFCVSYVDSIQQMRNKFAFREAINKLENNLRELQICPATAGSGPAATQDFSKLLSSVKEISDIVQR
Chain of Bcr/Abl fusion protein (Homo sapiens) (P11274 whole entry, looked up, the tested form may be a part): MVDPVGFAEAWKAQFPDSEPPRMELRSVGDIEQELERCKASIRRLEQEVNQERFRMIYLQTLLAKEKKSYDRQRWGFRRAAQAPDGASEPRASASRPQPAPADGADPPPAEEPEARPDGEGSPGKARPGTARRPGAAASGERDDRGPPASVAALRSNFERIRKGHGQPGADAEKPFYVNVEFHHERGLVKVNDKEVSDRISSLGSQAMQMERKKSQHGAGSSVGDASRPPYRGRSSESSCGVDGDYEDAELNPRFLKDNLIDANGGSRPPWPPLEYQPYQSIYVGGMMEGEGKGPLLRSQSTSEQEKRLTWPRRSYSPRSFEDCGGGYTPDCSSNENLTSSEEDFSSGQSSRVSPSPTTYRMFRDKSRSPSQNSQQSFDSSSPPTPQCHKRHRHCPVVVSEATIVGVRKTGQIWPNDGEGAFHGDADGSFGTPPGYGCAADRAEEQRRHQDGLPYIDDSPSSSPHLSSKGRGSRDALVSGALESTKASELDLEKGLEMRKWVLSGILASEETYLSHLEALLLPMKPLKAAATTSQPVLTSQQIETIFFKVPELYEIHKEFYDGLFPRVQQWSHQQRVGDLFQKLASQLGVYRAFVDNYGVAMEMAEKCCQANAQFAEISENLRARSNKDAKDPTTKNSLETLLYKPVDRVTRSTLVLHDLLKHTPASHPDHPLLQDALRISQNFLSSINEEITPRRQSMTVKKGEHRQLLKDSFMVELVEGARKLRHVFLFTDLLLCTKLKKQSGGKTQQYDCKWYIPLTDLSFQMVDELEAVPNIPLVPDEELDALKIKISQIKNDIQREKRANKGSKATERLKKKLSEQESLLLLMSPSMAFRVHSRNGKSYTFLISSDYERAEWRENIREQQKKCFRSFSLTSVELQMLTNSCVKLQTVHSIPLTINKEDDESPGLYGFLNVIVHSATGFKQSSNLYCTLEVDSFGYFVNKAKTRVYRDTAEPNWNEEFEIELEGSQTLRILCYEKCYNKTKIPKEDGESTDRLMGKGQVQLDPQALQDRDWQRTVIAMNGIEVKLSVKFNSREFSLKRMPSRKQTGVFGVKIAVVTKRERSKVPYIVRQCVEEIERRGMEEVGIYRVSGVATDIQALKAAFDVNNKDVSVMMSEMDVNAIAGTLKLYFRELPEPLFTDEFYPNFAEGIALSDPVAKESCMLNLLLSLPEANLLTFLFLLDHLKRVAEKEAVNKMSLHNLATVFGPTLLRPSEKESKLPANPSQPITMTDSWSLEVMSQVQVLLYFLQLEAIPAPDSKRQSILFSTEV

Chain of Tyrosine-protein kinase ABL1 (Homo sapiens) (P00519 whole entry, the tested form may be a part): as the sequence (P00519 whole entry, looked up, the tested form may be a part) above

For COc1cc(O)c(C2=NN(C(=S)Nc3cc(OC)c(OC)c(OC)c3)C(c3cccc4ccccc34)C2)cc1OC (configuration not stated), which inhibition [1] is on record?
The inhibition was 93%.

What about the inhibition [2] of the same molecule?
Its inhibition is “Active”.
